Results published in paper PMC4434909, “In vitro properties of designed antimicrobial peptides that exhibit potent antipneumococcal activity and produces synergism in combination with penicillin” (Scientific Reports, 2015).
Values joined by “and” are separate entries in the source; they are usually repeats but may differ in a detail not shown here. Equal values may be shown once. Read-outs that look alike come from different tables or passages of the source. Where no end group is shown, it is not given here.

Experiments:
human erythrocytes = assay: Hemolytic activity; format: cell-based
Method: Hemolytic assay was performed as described. Freshly drawn human erythrocytes were rinsed three times with PBS and resuspended in PBS to 4% (v/v). One hundred microliters of the suspension was added to 96-well microtiter plate containing equal volume of peptides to give final concentrations of peptides encompassing the range of 1.96–250 μg/ml. PBS and 0.1% (v/v) Triton-X 100 were used as 0% and 100% hemolytic control respectively. Plates were incubated at 37°C for 1 hr. Subsequently, the plate was centrifuged and the supernatant was transferred to a new plate. The release of hemoglobin in the supernatant was monitored at absorbance of 450 nm using Glomax Multidetection system (Promega, USA). Results were pooled from three independent experiments and expressed as mean ± SD. HC10 and HC50 were defined as the peptide concentrations causing 10% and 50% hemolysis on human erythrocytes, respectively. Hmax was the percentage hemolysis observed at the maximum concentration as defined throughout this study (all peptides 250 μg/ml, PEN 4 μg/ml).

A. baumanii ATCC 15308 = format: cell-based, Acinetobacter baumanii
Description: (§1) All bacterial strains were obtained from Department of Medical Microbiology, University of Malaya. Clinical isolates were previously obtained from University of Malaya Medical Centre and maintained in the laboratory. Sheep blood agar was used for pneumococcal cultivation purpose. Nutrient agar was used for cultivating E. coli ATCC 25922, S. aureus ATCC 25923, and P. aeruginosa ATCC 15442, Acinetobacter baumanii ATCC 15308, and one clinical isolate for each MRSA, E. cloacae, Citrobacter spp., and K. pneumoniae. For antimicrobial testing, Mueller-Hinton agar (MHA) and cationically-adjusted MHB (CAMHB) were prepared according to the Clinical and Laboratory Standard Institute guidelines. MHA for S. pneumoniae was supplemented with 5% (v/v) defibrinated sheep blood and 5% laked horse blood for CAMHB. All bacterial cultures were stored in multiple vials in brain heart infusion broth supplemented with 10% (v/v) glycerol at −80°C to avoid repeated freeze-thawed cycles on the cells. All freeze-stocked strains were passaged twice prior to experimentation.
(§2) Procedures were performed to determine the MIC of peptides according to the CLSI guidelines[21] against 60 pneumococcal isolates which consisted of 20 isolates each for PRSP, PISP, and PSSP. Strains were grown for 18–24 hrs at 37°C under 5% CO2. Direct suspension of the colonies were made in CAMHB and adjusted to OD625 0.08–0.1 which corresponds to 1 ~ 2 × 10^8 CFU/ml followed by serial ten-fold dilutions to give 1 × 10^6 CFU/ml. Fifty microliters of bacterial suspension was then aliquoted to 96-well round bottom microtiter plates containing equal volume of serially diluted peptides to give final concentrations of peptides encompassing the range of 1.96–250 μg/ml. […] The plates were incubated for 18–24 hrs at 37°C under 5% CO2. MIC was read as the concentration of peptide producing complete inhibition on the visible growth of the test organism. Results were pooled from three independent experiments. MIC range was defined as the range of concentrations where the peptides produce detectable antimicrobial activity. Effective percentage (EP) was the proportion of pneumococcal isolates inhibited within the MIC range. Since the isolates tested were obtained prior to 2008 where major revision in antibiotic susceptibility breakpoints were introduced, thus the pneumococci were defined according to the PEN susceptibility breakpoint (prior 2008) which corresponds to the PEN (oral penicillin V) breakpoint of the revised criteria.
The broad spectrum antibacterial activity of the peptides against a panel of eight clinically important bacteria was also determined, this includes S. aureus ATCC 25923, E. coli ATCC 25922, P. aeruginosa ATCC 15442, A. baumanii ATCC 15308, and one clinical isolate each for MRSA, E. cloacae, Citrobacter spp., and K. pneumoniae.

NL20 cell line = assay: Cytotoxicity against human cell lines (CellTiter 96 AQueous); format: cell-based
Method: (§3) Both the NL20 human lung bronchial normal epithelial cell line and the A549 human lung alveolar adenocarcinoma epithelial cell line were used for cell cytotoxicity tests. Besides investigating the cytotoxicity of peptides, differences in cell viability between the two cell lines can be used to evaluate the cell line selectivity and to assess potential anticancer potential of the peptides. NL20 cell line was grown in Ham's F12 medium and A549 cell line was grown in Roswell Park Memorial Institute medium. Both media were supplemented with fetal bovine serum to 10% (v/v) as growth medium or 2% (v/v) as maintenance medium in cell cytotoxicity testing. The assay was performed as described by Lee et al.[26]. NL20 cells was seeded overnight at 3 × 10^4 cells/well in 96-well cell culture-treated flat bottom microtiter plate and treated with serial dilutions of peptide at a final concentration of 1.95–250 μg/ml. PEN was tested from 0.03–4 μg/ml, the same range used to classify the susceptibility of pneumococcal isolates in this study. Test using A549 cells followed the same procedures with 1 × 10^4 cells/well. Plates were incubated at 37°C under 5% CO2 for 24, 48, and 72 hrs. Cell viability was detected by using CellTiter 96® AQueous Non-Radioactive Cell Proliferation assay (Promega, USA) and the colorimetric changes were read with Glomax multidetection system (Promega, USA) at OD 490 nm. Results were pooled from three independent experiments and expressed as mean ± SD. […] Imax was the percentage of cell viable treated with peptides/PEN at the maximum concentration as defined throughout this study (all peptides 250 μg/ml, PEN 4 μg/ml).

A549 cell line = assay: as above; format: cell-based
Method: as §3

S. pneumoniae = format: cell-based, Streptococcus pneumoniae; conditions: for Overall EP: proportion of the 60 pneumococcal isolates inhibited within the MIC range
Description: as §1, §2

[1] = system: penicillin-intermediate S. pneumoniae (PISP); format: cell-based, Streptococcus pneumoniae; conditions: for MIC, PISP: MIC range over 20 PISP isolates, CLSI broth microdilution, CAMHB with 5% laked horse blood, 18–24 hrs 37°C 5% CO2, peptides 1.96–250 μg/ml, three independent experiments; for EP %, PISP: effective percentage: proportion of isolates inhibited within the MIC range
Description: as §1, §2

[2] = system: penicillin-susceptible S. pneumoniae (PSSP); format: cell-based, Streptococcus pneumoniae; conditions: for MIC, PSSP: MIC range over 20 PSSP isolates, CLSI broth microdilution, CAMHB with 5% laked horse blood, 18–24 hrs 37°C 5% CO2, peptides 1.96–250 μg/ml, three independent experiments; for EP %, PSSP: effective percentage: proportion of isolates inhibited within the MIC range
Description: as §1, §2

[3] = bound stated in text for 24, 48 and 72 hrs together
[4] = concentration reducing cell viability to 50%, 24 hrs, 2% FBS medium, OD 490 nm, mean ± SD of three independent experiments
[5] = concentration reducing cell viability to 50%, 48 hrs, 2% FBS medium, OD 490 nm, mean ± SD of three independent experiments
[6] = concentration reducing cell viability to 50%, 72 hrs, 2% FBS medium, OD 490 nm, mean ± SD of three independent experiments
[7] = percentage cell viability at the highest concentration (peptides 250 μg/ml; PEN 4 μg/ml), 24 hrs, mean ± SD
[8] = percentage cell viability at the highest concentration (peptides 250 μg/ml; PEN 4 μg/ml), 48 hrs, mean ± SD
[9] = percentage cell viability at the highest concentration (peptides 250 μg/ml; PEN 4 μg/ml), 72 hrs, mean ± SD

Row | Substance | HC10 (human erythrocytes) | HC50 (human erythrocytes; red cells of human, 1 h) | MIC, A. baumanii ATCC 15308 (A. baumanii ATCC 15308; ATCC 15308) | Imax, NL20 cell line, 24 hrs (NL20 cell line) | Imax, NL20 cell line, 48 hrs (NL20 cell line) | Imax, NL20 cell line, 72 hrs (NL20 cell line) | IC50, NL20 cell line, 24 hrs (NL20 cell line; 24 h) | IC50, NL20 cell line, 48 hrs (NL20 cell line; 48 h) | IC50, NL20 cell line, 72 hrs (NL20 cell line; 72 h) | IC50, A549 cell line, 24 hrs (A549 cell line; 24 h) | IC50, A549 cell line, 48 hrs (A549 cell line; 48 h) | IC50, A549 cell line, 72 hrs (A549 cell line; 72 h) | Overall MIC (S. pneumoniae) | Overall EP (S. pneumoniae) | MIC, PISP [1] | EP %, PISP [1] | MIC, PSSP [2] | EP %, PSSP [2] | also measured
1 | GLFDIWKWWRWRR-NH2 [DM3] | 52.7 µg/mL | >250 µg/mL | 15.63 µg/mL | 13.3 ± 2.1% | 24.0 ± 7.6% | 12.4 ± 4.5% | 68.5 ± 11.0 µg/mL | 91.5 ± 7.6 µg/mL | 112.2 ± 8.8 µg/mL | 56.0 ± 9.3 µg/mL | 80.0 ± 1.7 µg/mL | 96.2 ± 4.4 µg/mL | 7.81 to 62.5 µg/mL | 100.0% | 7.81 to 62.5 µg/mL | (100.0) % | 7.81 to 62.5 µg/mL | (100.0) % | hemolysis at the effective MIC level against S. pneumoniae (human erythrocytes; red cells of human, 1 h): ≤ 15%
2 | GLFDKWAWWRWRR-NH2 [DM1] |  |  |  |  |  |  |  |  |  |  |  |  | 31.3 to 250 µg/mL | 100.0% | 31.3 to 125 µg/mL | (100.0) % | 62.5 to 250 µg/mL | (100.0) % | HC10 (human erythrocytes; concentration causing 10% hemolysis, 4% (v/v) erythrocytes in PBS, 37°C 1 hr, absorbance 450 nm, mean ± SD of three independent experiments): > 250 µg/mL; HC50 (human erythrocytes; concentration causing 50% hemolysis, 4% (v/v) erythrocytes in PBS, 37°C 1 hr, absorbance 450 nm, three independent experiments): >250 µg/mL; Hmax (human erythrocytes; percentage hemolysis at the highest concentration tested (all peptides 250 μg/ml; PEN 4 μg/ml), mean ± SD of three independent experiments): < 1.0% and 0.5 ± 0.1%; MIC, A. baumanii ATCC 15308 (A. baumanii ATCC 15308; Gram-negative, broth microdilution, CAMHB, peptides 1.96–250 μg/ml): 62.5 µg/mL; IC50 against NL20 cell line, over all time points (NL20 cell line; [3]): > 220 µg/mL; IC50, NL20 cell line, 24 hrs (NL20 cell line; [4]): 221.8 ± 7.8 µg/mL; IC50, NL20 cell line, 48 hrs (NL20 cell line; [5]): 235.7 ± 12.9 µg/mL; IC50, NL20 cell line, 72 hrs (NL20 cell line; [6]): 242.2 ± 7.3 µg/mL; Imax, NL20 cell line, 24 hrs (NL20 cell line; [7]): 35.3 ± 6.6%; Imax, NL20 cell line, 48 hrs (NL20 cell line; [8]): 42.2 ± 8.6%; Imax, NL20 cell line, 72 hrs (NL20 cell line; [9]): 45.9 ± 4.3%; IC50 against A549 cell line, over all time points (A549 cell line; [3]): ≥ 195.0 µg/mL; IC50, A549 cell line, 24 hrs (A549 cell line; [4]): 215.3 ± 19.7 µg/mL; IC50, A549 cell line, 48 hrs (A549 cell line; [5]): 195.0 ± 25.2 µg/mL; IC50, A549 cell line, 72 hrs (A549 cell line; [6]): >250 µg/mL; Imax, A549 cell line, 24 hrs (A549 cell line; [7]): 38.6 ± 6.2%; Imax, A549 cell line, 48 hrs (A549 cell line; [8]): 39.8 ± 7.7%; Imax, A549 cell line, 72 hrs (A549 cell line; [9]): 66.2 ± 7.2%
3 | GLFDIWAWWRWRR-NH2 [DM2] | 114.3 µg/mL | >250 µg/mL | 31.3 µg/mL | 64.3 ± 7.0% | 53.3 ± 9.1% | 46.8 ± 4.0% | >250 µg/mL | >250 µg/mL | 241.5 ± 9.0 µg/mL | > 250 µg/mL | 197.7 µg/mL | 165.0 µg/mL | 7.81 to 250 µg/mL | 100.0% | 7.81 to 250 µg/mL | (100.0) % | 15.63 to 250 µg/mL | (100.0) % | 
